Source: publication PMC3025922 (BMC Biology, 2010)
Where “and” joins values, the source holds several entries; their conditions need not be identical. Equal values may be shown once. Read-outs that look alike come from different tables or passages of the source.

Experiments:
[1] = system: LNCaP-S14 cells; assay: Cell cycle analysis by flow cytometry, LNCaP-S14; assay type: cell-based, human
Description: (§1) Cells were exposed to SMIPs (40 μM) for 24 h and 48 h. Cells were trypsinized, washed with PBS and suspended in 600 μL PBS. Cells were fixed by adding 1.4 mL cold absolute ethanol and kept at -20°C for at least 12 h. After washing once with PBS, the cells were resuspended in 250 μL PBS containing 2.5 μg RNAse A and incubated for 45 min at room temperature. Staining was done by adding 40 μg/mL of propidium iodine followed by incubation for 15 min at room temperature. DNA-bound fluorescence was read at 564 to 606 nm using FACSort and FACSCanto flow cytometers (BD Biosciences) at the Flow Cytometry Facility of the Sanford-Burnham Medical Research Institute. Distribution of cells in the different cell cycle phase was determined with ModFit LT 3.2.1 or FlowJo 8.6 software. Aggregates were excluded from the analysis manually using pulse shape or identified by automated modelling in ModFit LT.

[2] = system: p21 protein levels in LNCaP cells; assay: Immunoblot quantification of p21, LNCaP; assay type: cell-based, human
Description: (§2) Total cell lysate from cells treated with vehicle (DMSO) or compounds were obtained by incubating cells in lysis buffer (25 mM Tris-HCl pH 7.4, 150 mM NaCl, 0.5% Triton X-100, protease inhibitors) for 15 min at 4°C. The supernatant was collected by centrifugation and the amount of protein was determined with a Bio-Rad protein assay (Bio-Rad) using BSA as standard. Equal amounts of protein were subjected to SDS-PAGE (4%-20% gels, Invitrogen) and transferred to PVDF membranes. The membranes were blocked with TBST (50 mM Tris-HCl pH 7.5, 150 mM NaCl, 0.05% Tween-20) containing 5% non-fat dry milk or bovine serum albumin (BSA) for 1 h at room temperature, followed by incubation in primary antibodies 4°C overnight. Membranes were washed and incubated with secondary antibodies conjugated to HRP (Jackson ImmunoResearch Laboratories) for 1 h at room temperature. Signals were visualized using the ECL Western Blotting Substrate (Pierce Biotechnology, IL, USA) according to the manufacturer's instructions. Membranes were stripped using Restore™ Western Blot Stripping Buffer (Pierce Biotechnology). Films were scanned and quantification of the bands was performed using Image J software http://rsbweb.nih.gov/ij/.

[3] = system: p27 protein levels in DU145 cells; assay: Immunoblot quantification of p27, DU145; assay type: cell-based, human
Description: as §2

[4] = system: p27 stability in LNCaP-S14 cells; assay: Protein half-life by cycloheximide chase; assay type: cell-based, human; settings: LNCaP-S14, 40 μM SMIPs 18 h, then cycloheximide 100 μg/mL; DMSO ~ 1.29 h
Description: LNCaP-S14 cells were treated with SMIPs (40 μM) for 18 h followed by the addition of 100 μg/mL cycloheximide (CHX). Cell extracts were obtained as described above at different times after CHX addition. Protein lysate was subjected to SDS-PAGE and immunoblotting for p27, p21 and SKP2. Tubulin was used as loading control. Protein half-lives were calculated using a web based calculator http://www.1728.com/halflife.htm.

[5] = system: p21 protein levels in LNCaP-S14 cells; assay: Immunoblot quantification of p21, LNCaP-S14; assay type: cell-based, human
Description: as §2

[6] = system: DU145 cells; assay: Cell cycle analysis by flow cytometry, DU145; assay type: cell-based, human
Description: as §1

[7] = system: PC3 cells; assay: Cell cycle analysis by flow cytometry, PC3; assay type: cell-based, human
Description: as §1

[8] = system: DU145 cells; assay: MTT cytotoxicity assay, DU145; settings: Homo sapiens, read-out: IC50 (MTT cytotoxicity)
[9] = system: p27 protein levels in PC3 cells; assay: Immunoblot quantification of p27, PC3; assay type: cell-based, human
Description: as §2

[10] = system: p27 protein levels in LNCaP-S14 cells; assay: Immunoblot quantification of p27, LNCaP-S14; assay type: cell-based, human
Description: as §2

[11] = system: p21 protein levels in PC3 cells; assay: Immunoblot quantification of p21, PC3; assay type: cell-based, human
Description: as §2

[12] = system: LNCaP-S14 cells; assay: Cell Death Detection ELISA (cytoplasmic histone-associated DNA fragments); assay type: cell-based, human
Description: Apoptosis was measured using the Cell Death Detection ELISA (Roche, Basel, Switzerland) following the manufacturer's instructions. Briefly, LNCaP-S14 cells (0.1 × 10^6) were seeded in 12-well plates and treated with SMIPs (40 μM) for 24 h. Cells were collected in medium, spun at 1000 rpm, and resuspended in 1 mL PBS at the specified time points (day 1 to day 3). The cell suspension was divided into two parts. The first half was used for determination of cytoplasmic histone-associated DNA fragments (ELISA), the second for protein determination to normalize the ELISA data to the amount of input protein.

[13] = system: p21 protein levels in IMR90 cells; assay: Immunoblot quantification of p21, IMR90; assay type: cell-based, human
Description: as §2

[14] = system: p27 protein levels in HeLa cells; assay: Immunoblot quantification of p27, HeLa; assay type: cell-based, human
Description: as §2

[15] = system: LNCaP-S14 cells; assay: Cell cycle distribution in LNCaP-S14 transfected with siRNAs for p27 and p21; assay type: cell-based, human
Description: as §1
LNCaP-S14 cells were seeded in 6 cm dishes or six-well-plates coated with poly-lysine the day before transfection. 10-20 nM of siRNA was transfected using DharmaFECT 3 (Thermo Scientific) according to the manufacturer's instructions. Briefly, siRNAs were dissolved in siRNA suspension buffer (Quiagen) at 20 μM, heated to 90°C for 1 min and incubated at 37°C for 1 h. siRNAs were added to the DharmaFECT 3 reagent diluted in Optimem media (1:100) and incubated for 20 min at room temperature. The mix was added to the cells for 24 h. Treatment with SMIPs (40 μM) or vehicle was carried on for another 24 h. Cells were obtained for FACS or lysed for immunoblotting analysis as described above. Untransfected cells as well as cells transfected with non-specific siRNA were used as controls. Silencer® Negative Control siRNA No.1 from Ambion (Applied Biosciences, CA, USA) was used as non-specific control siRNA. siRNA target sequences for p27 and p21 synthesized by IDT (Integrated DNA Technologies Inc, Iowa, USA) were as follows; p27 siRNA: […], and p21 siRNA: […] [56].

[16] = system: p21 protein levels in HeLa cells; assay: Immunoblot quantification of p21, HeLa; assay type: cell-based, human
Description: as §2

With `CC(C)(C)c1cc2cc(NC(=O)c3cccs3)ccc2[nH]1` [SMIP001] the “Cell cycle distribution G1” value [1] was 84.8 and 86.8, the “Cell cycle distribution G2” value [1] was 6.3 and 3.5 and the “Cell cycle distribution S” value [1] was 7.2 and 6.9. For the same molecule, the “p21 protein level (immunoblot, DMSO = 1.0)” value (“p21 protein level” below) [2] was 1.7 ± 0.6, the “p27 protein level (immunoblot, DMSO = 1.0)” value (shortened to “p27 protein level”) [3] was 1.1 ± 0.2 and the p27 half-life [4] was “No effect”. For the same molecule, the “p21 protein level” value [5] was 2.0 ± 0.6, the “Cell cycle distribution G1” value [6] was 65.6 and 71.1 and the “Cell cycle distribution G2” value [6] was 9.7 and 13.6. The “Cell cycle distribution S” value [6] was 23.9 and 13.4, the “Cell cycle distribution G1” value [7] was 48.6 and 57.5 and the “Cell cycle distribution G2” value [7] was 29.7 and 27.8. For the same molecule, the “Cell cycle distribution S” value [7] was 20.4 and 13.6, the IC50 ([8]; DU-145, 72 h) was roughly 40 µM and the IC50 ([8]; DU-145, 96 h) was 32.5 µM. For the same molecule, the “p27 protein level” value [9] was 1.3 ± 0.6, the “p27 protein level” value [10] was 1.9 ± 0.5 and the “p21 protein level” value [11] was 1.1 ± 0.5. The “increase in the amount of mono and oligonucleosomes” value [12] was “three- to fivefold”, the “p21 protein level” value [13] was 1.1 ± 0.0 and the “p27 protein level” value [14] was 1.1 ± 0.1. For the same molecule, the “% G1” value [15] was 71.86% and 75.76% and 75.13% and 72.22%, the “% G2” value [15] was 21.07% and 14.54% and 18.37% and 16.74% and the “% S” value [15] was 7.07% and 9.70% and 6.50% and 11.04%. The “p21 protein level” value [16] was 1.1 ± 0.2.
